How the values were obtained:
[1] = target: T1, human recombinant adrenergic α2B receptor (Homo sapiens, UniProt P18089); assay: Adrenergic α2B radioligand binding ([3H]Rauwolscine); settings: compound at 1 μM; CHO-K1 cells; read-out: Adrenergic (1 μM) α2B, percent inhibition of specific binding
T1 construct: expressed in transfected cells; host or cells: CHO-K1 cells
T1 sequence (P18089 1-450): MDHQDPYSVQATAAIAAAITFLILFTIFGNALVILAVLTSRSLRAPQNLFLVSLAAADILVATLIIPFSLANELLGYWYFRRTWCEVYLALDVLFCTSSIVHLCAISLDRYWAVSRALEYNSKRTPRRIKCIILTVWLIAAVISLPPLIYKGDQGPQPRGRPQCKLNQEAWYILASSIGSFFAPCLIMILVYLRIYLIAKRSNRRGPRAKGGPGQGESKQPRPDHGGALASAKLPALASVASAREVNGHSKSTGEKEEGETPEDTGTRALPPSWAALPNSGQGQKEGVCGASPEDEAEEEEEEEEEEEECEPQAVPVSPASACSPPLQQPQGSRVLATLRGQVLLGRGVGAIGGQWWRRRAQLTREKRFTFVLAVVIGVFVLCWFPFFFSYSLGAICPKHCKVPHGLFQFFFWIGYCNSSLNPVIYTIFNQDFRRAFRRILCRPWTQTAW
Procedure: To evaluate in radioligand binding assays the activity of compounds of the invention, human recombinant adrenergic α2B receptor expressed in Chinese hamster ovary (CHO-K1) cells (Uhlen S et al. Eur. J. Pharmacol. 343(1):93, 1998) in a modified Tris-HCl buffer (50 mM Tris-HCl, pH 7.4, 12.5 mM MgCl2, 1 mM EDTA, 0.2% BSA) was used. Compounds of the invention were incubated with 2.5 nM [3H]Rauwolscine for 60 minutes at 25° C. Non-specific binding was estimated in the presence of 10 μM Prozosin. Receptor proteins were filtered and washed, the filters were then counted to determine [^3H]Rauwolscine specifically bound. Compounds were screened at 1 μM or lower, using 1% DMSO as vehicle. Biochemical assay results are presented as the percent inhibition of specific binding in Table 6.

[2] = target: T2, human recombinant adrenergic α2A receptor (Homo sapiens, UniProt P08913); assay: Adrenergic α2A radioligand binding ([3H]MK-912); settings: compound at 1 μM; insect Sf9 cells; read-out: Adrenergic (1 μM) α2A, percent inhibition of specific binding
T2 construct: expressed in transfected cells; host or cells: insect Sf9 cells
T2 sequence (P08913 1-465): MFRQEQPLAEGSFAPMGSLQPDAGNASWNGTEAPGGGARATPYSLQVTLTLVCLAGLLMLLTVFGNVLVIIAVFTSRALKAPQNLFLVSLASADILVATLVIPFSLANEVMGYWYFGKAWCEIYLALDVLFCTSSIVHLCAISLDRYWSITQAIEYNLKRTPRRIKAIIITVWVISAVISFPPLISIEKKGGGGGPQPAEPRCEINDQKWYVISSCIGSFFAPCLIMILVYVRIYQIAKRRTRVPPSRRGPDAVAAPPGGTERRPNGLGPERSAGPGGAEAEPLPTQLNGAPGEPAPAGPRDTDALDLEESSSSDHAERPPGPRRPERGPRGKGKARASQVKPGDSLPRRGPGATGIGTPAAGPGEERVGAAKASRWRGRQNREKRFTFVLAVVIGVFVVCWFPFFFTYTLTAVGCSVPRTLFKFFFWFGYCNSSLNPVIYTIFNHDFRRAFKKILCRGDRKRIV
Procedure: To evaluate in radioligand binding assays the activity of compounds of the invention, human recombinant adrenergic α2A receptor expressed in insect Sf9 cells (Uhlen S et al. J Pharmacol Exp Ther. 271:1558, 1994) in a modified Tris-HCl buffer (50 mM Tris-HCl, pH 7.4, 12.5 mM MgCl2, 2 mM EDTA) was used. Compounds of invention were incubated with 1 nM [^3H]MK-912 for 60 minutes at 25° C. MK912 is (2S-trans)-1,3,4,5′,6,6′,7,12b-octahydro-1′,3′-dimethyl-spiro[2H-benzofuro[2,3-a]quinolizine-2,4′(1′H)-pyrimidin]-2′(3′H)-one hydrochloride Non-specific binding was estimated in the presence of 10 μM WB-4101 (2-(2,6-Dimethoxyphenoxyethyl)aminomethyl-1,4-benzodioxane hydrochloride). Receptor proteins were filtered and washed, the filters were then counted to determine [^3H]MK-912 specifically bound. Compounds were screened at 1 μM or lower, using 1% DMSO as vehicle. Biochemical assay results are presented as the percent inhibition of specific binding in Table 6.

[3] = target: T3, human recombinant serotonin (5-Hydroxytryptamine) 5-HT2C receptor (Homo sapiens, UniProt P28335); assay: Serotonin 5-HT2C radioligand binding ([3H]Mesulergine); settings: compound at 1 μM; CHO-K1 cells; read-out: Serotonin (1 μM) 5-HT2C, percent inhibition of specific binding
T3 construct: expressed in transfected cells; host or cells: CHO-K1 cells
T3 sequence (P28335 33-458): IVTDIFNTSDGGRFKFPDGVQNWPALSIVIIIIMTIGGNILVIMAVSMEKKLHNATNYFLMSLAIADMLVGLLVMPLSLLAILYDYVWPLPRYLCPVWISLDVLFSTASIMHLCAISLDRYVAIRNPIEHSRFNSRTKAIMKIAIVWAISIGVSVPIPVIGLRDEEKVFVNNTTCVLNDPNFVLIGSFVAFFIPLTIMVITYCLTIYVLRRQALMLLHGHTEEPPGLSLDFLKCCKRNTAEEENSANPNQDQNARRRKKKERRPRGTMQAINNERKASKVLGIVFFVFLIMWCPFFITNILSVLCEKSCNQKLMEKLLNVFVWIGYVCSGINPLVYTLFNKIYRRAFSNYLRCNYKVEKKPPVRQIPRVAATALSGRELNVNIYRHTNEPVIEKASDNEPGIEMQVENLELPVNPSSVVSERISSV
Procedure: To evaluate in radioligand binding assays the activity of compounds of the invention, human recombinant serotonin (5-Hydroxytryptamine) 5-HT2C receptor expressed in Chinese hamster ovary (CHO-K1) cells (Wolf, W. A. and Schutz, J. S., J. Neurochem. 69:1449, 1997) in a modified Tris-HCl buffer (50 mM Tris-HCl, pH 7.4, 0.1% Ascorbic Acid, 10 μM Pargyline) was used. Compounds of the invention were incubated with 1 nM [^3H]Mesulergine for 60 minutes at 25° C. Non-specific binding was estimated in the presence of 1 μM Mianserin. Receptor proteins were filtered and washed, the filters were then counted to determine [^3H]Mesulergine specifically bound. Compounds were screened at 1 μM or lower, using 1% DMSO as vehicle. Biochemical assay results are presented as the percent inhibition of specific binding in Table 7.

SMILES: Cc1ccc2c(c1)c1c(n2CCC(=O)NC(C)(C)C)CCN(C)C1 [Compound 28]
- inhibition at 1 µM [1]: 85%
- inhibition at 1 µM [2]: 44%
- inhibition at 1 µM [3]: 35%

SMILES: Cc1ccc2c(c1)c1c(n2CCC(=O)Nc2ccccc2)CCN(C)C1 [Compound 29]
- inhibition at 1 µM [1]: 79%
- inhibition at 1 µM [2]: 78%
- inhibition at 1 µM [3]: 73%

SMILES: Cc1ccc2c(c1)c1c(n2CCC(=O)NCC2CCCCC2)CCN(C)C1 [Compound 30, N-(cyclohexylmethyl)-3-(1,2,3,4-tetrahydro-2,8-dimethylpyrido[4,3-b]indol-5-yl)propanamide]
- inhibition at 1 µM [1]: 104%
- inhibition at 1 µM [2]: 74%
- inhibition at 1 µM [3]: 93%

SMILES: CN1CCc2c(c3cc(Cl)ccc3n2CCC(=O)NC2CCCC2)C1 [Compound 31, 3-(8-chloro-1,2,3,4-tetrahydro-2-methylpyrido[4,3-b]indol-5-yl)-N-cyclopentylpropanamide]
- inhibition at 1 µM [1]: 91%
- inhibition at 1 µM [2]: 37%
- inhibition at 1 µM [3]: 76%

SMILES: CN1CCc2c(c3cc(Cl)ccc3n2CC(N)=O)C1 [Compound 45, 2-(8-chloro-1,2,3,4-tetrahydro-2-methylpyrido[4,3-b]indol-5-yl)acetamide]
- inhibition at 1 µM [1]: 18%
- inhibition at 1 µM [2]: 16%
- inhibition at 1 µM [3]: 52%

SMILES: Cc1ccc2c(c1)c1c(n2CCC(N)=O)CCN(C)C1 [Compound 46, 3-(1,2,3,4-tetrahydro-2,8-dimethylpyrido[4,3-b]indol-5-yl)propanamide]
- inhibition at 1 µM [1]: 46%
- inhibition at 1 µM [2]: 44%
- inhibition at 1 µM [3]: 65%

SMILES: Cc1ccc2c(c1)c1c(n2CCC(=O)Nc2ccc(F)cc2)CCN(C)C1 [Compound 47, N-(4-fluorophenyl)-3-(1,2,3,4-tetrahydro-2,8-dimethylpyrido[4,3-b]indol-5-yl)propanamide]
- inhibition at 1 µM [1]: 96%
- inhibition at 1 µM [2]: 73%
- inhibition at 1 µM [3]: 90%

SMILES: CN1CCc2c(c3cc(Cl)ccc3n2CC(=O)N(C)C)C1 [Compound 48, 2-(8-chloro-1,2,3,4-tetrahydro-2-methylpyrido[4,3-b]indol-5-yl)-N,N-dimethylacetamide]
- inhibition at 1 µM [1]: 13%
- inhibition at 1 µM [2]: 20%
- inhibition at 1 µM [3]: 37%

SMILES: CN1CCc2c(c3cc(Cl)ccc3n2CCC(=O)N(C)C)C1 [Compound 49, 3-(8-chloro-1,2,3,4-tetrahydro-2-methylpyrido[4,3-b]indol-5-yl)-N,N-dimethylpropanamide]
- inhibition at 1 µM [1]: 76%
- inhibition at 1 µM [2]: 83%
- inhibition at 1 µM [3]: 47%

SMILES: Cc1ccc2c(c1)c1c(n2CCNC(=O)c2ccncc2)CCN(C)C1 [Compound 50, N-(2-(1,2,3,4-tetrahydro-2,8-dimethylpyrido[4,3-b]indol-5-yl)ethyl)isonicotinamide]
- inhibition at 1 µM [1]: 70%
- inhibition at 1 µM [2]: 38%
- inhibition at 1 µM [3]: 35%

SMILES: Cc1ccc2c(c1)c1c(n2CC(=O)Nc2ccc(F)cc2)CCN(C)C1 [Compound 51, N-(4-fluorophenyl)-2-(1,2,3,4-tetrahydro-2,8-dimethylpyrido[4,3-b]indol-5-yl)acetamide]
- inhibition at 1 µM [1]: 82%
- inhibition at 1 µM [2]: 22%
- inhibition at 1 µM [3]: 70%

SMILES: CCCCOC(=O)Cn1c2c(c3cc(Cl)ccc31)CN(C)CC2 [Compound 52, butyl 2-(8-chloro-1,2,3,4-tetrahydro-2-methylpyrido[4,3-b]indol-5-yl)acetate]
- inhibition at 1 µM [1]: 89%
- inhibition at 1 µM [2]: 38%
- inhibition at 1 µM [3]: 85%

SMILES: Cc1ccc2c(c1)c1c(n2CCC(=O)NC(C)C)CCN(C)C1 [Compound 53]
- inhibition at 1 µM [1]: 86%
- inhibition at 1 µM [2]: 54%
- inhibition at 1 µM [3]: 51%

SMILES: Cc1ccc2c(c1)c1c(n2CCC(=O)NCc2ccccc2)CCN(C)C1 [Compound 59, N-benzyl-3-(1,2,3,4-tetrahydro-2,8-dimethylpyrido[4,3-b]indol-5-yl)propanamide]
- inhibition at 1 µM [1]: 96%
- inhibition at 1 µM [2]: 45%
- inhibition at 1 µM [3]: 72%

SMILES: CN1CCc2c(c3cc(Cl)ccc3n2CC(=O)NC2CCCCC2)C1 [Compound 60, 2-(8-chloro-1,2,3,4-tetrahydro-2-methylpyrido[4,3-b]indol-5-yl)-N-cyclohexylacetamide]
- inhibition at 1 µM [1]: 52%
- inhibition at 1 µM [2]: 23%
- inhibition at 1 µM [3]: 35%

SMILES: Cc1ccc2c(c1)c1c(n2CCNC(=O)C(C)C)CCN(C)C1 [Compound 61, N-(2-(1,2,3,4-tetrahydro-2,8-dimethylpyrido[4,3-b]indol-5-yl)ethyl)isobutyramide]
- inhibition at 1 µM [1]: 70%
- inhibition at 1 µM [2]: 46%
- inhibition at 1 µM [3]: 27%

SMILES: Cc1ccc2c(c1)c1c(n2CCNC(=O)C2CCCCC2)CCN(C)C1 [Compound 62, N-(2-(1,2,3,4-tetrahydro-2,8-dimethylpyrido[4,3-b]indol-5-yl)ethyl)cyclohexanecarboxamide]
- inhibition at 1 µM [1]: 92%
- inhibition at 1 µM [2]: 40%
- inhibition at 1 µM [3]: 54%

SMILES: Cc1ccc2c(c1)c1c(n2CCNC(=O)c2ccc(F)cc2Cl)CCN(C)C1 [Compound 63, 2-chloro-4-fluoro-N-(2-(1,2,3,4-tetrahydro-2,8-dimethylpyrido[4,3-b]indol-5-yl)ethyl)benzamide]
- inhibition at 1 µM [1]: 98%
- inhibition at 1 µM [2]: 65%
- inhibition at 1 µM [3]: 72%

SMILES: Cc1ccc2c(c1)c1c(n2CC(N)=O)CCN(C)C1 [Compound 64, 2-(1,2,3,4-tetrahydro-2,8-dimethylpyrido[4,3-b]indol-5-yl)acetamide]
- inhibition at 1 µM [1]: 40%
- inhibition at 1 µM [2]: 9%
- inhibition at 1 µM [3]: 45%

SMILES: Cc1ccc2c(c1)c1c(n2CCNC(=O)C2CCNCC2)CCN(C)C1 [Compound 65, N-(2-(1,2,3,4-tetrahydro-2,8-dimethylpyrido[4,3-b]indol-5-yl)ethyl)piperidine-4-carboxamide]
- inhibition at 1 µM [1]: 12%
- inhibition at 1 µM [2]: 17%
- inhibition at 1 µM [3]: 24%

From patent US9115137B2, “2,3,4,5-tetrahydro-1H-pyrido[4,3-B]indole compounds and methods of use thereof” (priority 2008, dated 2015)
